Holding throughout (type): cell-based
In one experiment the test system is SW1573. In words: Combinatorial activity in LUAD cell line SW1573. The settings on record: Homo sapiens; SW1573, KRAS G12C; single agent; read-out: (nM) s.a. Here is the method: (§1) Combinatorial activity of PF-07104091 and PF-07220060 was assessed in LUADs as single agents (s.a.) or in combination.
In the next experiment the test system is HCC44 (RB-). In words: Combinatorial activity in LUAD cell line HCC44. The settings on record: Homo sapiens, KRAS G12C, single agent, read-out: (nM) s.a. Here is the method:
as §1

The subject of a further experiment is H2030. In words: Combinatorial activity in LUAD cell line H2030. The settings on record: Homo sapiens, NCI-H2030; H2030, KRAS G12C; single agent; read-out: (nM) s.a. Here is the method: as §1

For `CC(C)n1c(C(C)(C)O)nc2c(F)cc(-c3nc(N[C@@H]4CCOC[C@H]4O)ncc3Cl)cc21` [PF-07220060, 1,5-anhydro-3-({5-chloro-4-[4-fluoro-2-(2-hydroxypropan-2-yl)-1-(propan-2-yl)-1H-benzimidazol-6-yl]pyrimidin-2-yl}amino)-2,3-dideoxy-D-threo-pentitol], the results for the IC50 in the experiment with SW1573, with HCC44 (RB-) and with H2030 were greater than 1000 nM, greater than 1000 nM and 950 nM, respectively.

The values above are taken from patent publication US20250041277A1, “METHODS AND DOSING REGIMENS COMPRISING A CDK2 INHIBITOR AND A CDK4 INHIBITOR FOR TREATING CANCER” (PFIZER INC., priority 2021, published 2025).
